Measured values as given in ChEMBL document CHEMBL1201862, “PubChem BioAssay data set” (2004).
Activity calls are given as the source filed them.

What was measured:
[1] = NIH-3T3 fibroblast cytotoxicity, dose response, cytotoxicity control, cell-based, fluorescence, Alamar Blue, secondary assay (AID 2327); format: functional;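 further: NIH-3T3 mouse fibroblasts cultured with fluconazole at 8 µg/mL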
[2] = luciferase reporter signal suppression in cells – H4 neuroglioma cells, luminescence, dose response (AID 1990); format: functional, cell-based
[3] = tested on: BJ; experiment: BJ-TERT fibroblast viability loss – cell-based, RAS-independent, luminescence, dose response (AID 1933); format: functional; conditions: Homo sapiens
[4] = Luminescence Cell-Based Dose Response HTS to Identify Inhibitors of 5'UTR Stem-Loop Driven Prion Protein mRNA Translation in H4 Neuroglioblastoma Cells. [Related pubchem assays: 1827 (Project Summary), 1813 (Primary HTS)]; format: functional
[5] = alpha-synuclein stem-loop luciferase translation blockers – H4 neuroglioma cells, luminescence, confirmation (AID 1988); format: functional, cell-based
[6] = tested on: BJ; experiment: cells; format: functional, cell-based; conditions: Homo sapiens
[7] = fluconazole-exposed Candida albicans growth modulators – fluorescence, retest, confirmation (AID 2467); format: functional, cell-based
[8] = microbe, parasite or virus in culture; format: functional; conditions: Mycobacterium tuberculosis
[9] = tested on: BJ; experiment: BJ-TERT-LT-ST fibroblast viability loss – cell-based, RAS-independent, luminescence, dose response (AID 1935); format: functional; conditions: Homo sapiens;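 further: BJ fibroblasts immortalized with TERT plus LT and ST oncogenes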
[10] = DRD fibroblast viability loss – cell-based, non-viral oncogenic, luminescence, dose response (AID 1934); format: functional; conditions: Homo sapiens
[11] = biological target: T1, Ubiquitin-conjugating enzyme E2 N (Homo sapiens, UniProt P61088); format: functional;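 further: Dose-response confirmation in a TR-FRET assay detecting UBC13-driven polyubiquitin chain formation, inhibition measured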
T1 sequence (P61088 whole entry): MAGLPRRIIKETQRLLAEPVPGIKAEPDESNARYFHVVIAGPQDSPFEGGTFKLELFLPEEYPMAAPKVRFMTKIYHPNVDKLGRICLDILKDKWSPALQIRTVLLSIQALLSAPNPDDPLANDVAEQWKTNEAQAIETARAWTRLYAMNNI

[12] = tested on: BJ; experiment: growth inhibition of engineered Ras-driven BJ cells – cell-based, alamar blue fluorescence, cherrypicked samples, dose response (AID 2631); format: functional; conditions: Homo sapiens;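 further: confirmatory dose-response assay in RAS-dependent BJ fibroblasts engineered with TERT, LT and ST, with cytotoxicity read by fluorescence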
[13] = tested on: INS1; experiment: INS-1E survival protection against cytokine death – cell-based, luminescence, retest, dose response (AID 449756); format: functional; conditions: Rattus norvegicus;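 further: cell death triggered by IL-1 beta plus TNF-alpha plus IFN-gamma mixture; protective hits raise ATP signal compared with cytokine alone wells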
[14] = reduced cellular PGC1a acetyl-lysine signal – cell-based, cherry-picked samples, dose response (AID 720514); format: functional;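 further: potency may reflect raised or lowered acetylation signal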
[15] = biological target: Heat shock protein HSP 90-alpha (Homo sapiens, UniProt P07900); format: functional, organism-based
[16] = tested on: Vero; experiment: viability of Vero cells under compound – cytotoxicity control for flavivirus capping enzyme inhibitors (AID 588742); format: functional; conditions: Chlorocebus sabaeus
[17] = biological target: Dual specificity tyrosine-phosphorylation-regulated kinase 1A (Rattus norvegicus, UniProt Q63470); format: biochemical, Homo sapiens
[18] = biological target: T2, Polyadenylate-binding protein 1 (Homo sapiens, UniProt P11940); experiment: MLLE binding blockers, Cy5 peptide tracer – biochemical, fluorescence polarization, Cy5-PAM2 peptide, secondary, miRNA deadenylation inhibitor project, dose response (AID 602260); format: functional; conditions: read-out: IC50_Mean
[19] = biological target: T2, Polyadenylate-binding protein 1; experiment: MLLE domain peptide-binding blockers, IC50 – biochemical, fluorescence polarization, FITC-PAM2 peptide, dose response (AID 602259); format: functional; conditions: read-out: IC50_Mean
[20] = tested on: Escherichia coli; experiment: microbe, parasite or virus in culture
[21] = biological target: Delta-type opioid receptor (Homo sapiens, UniProt P41143); experiment: Counterscreen for agonists of heterodimerization of the mu 1 (OPRM1) and delta 1 (OPRD1) opioid receptors: Luminescence-based cell-based high throughput dose response assay to identify agonists of OPRD1 homodimerization. [Related pubchem assays (depositor defined):AID504326, AID504355, AID504692, AID504904, AID504905]; format: functional
[22] = biological target: Mu-type opioid receptor (Homo sapiens, UniProt P35372); experiment: Counterscreen for agonists of heterodimerization of the mu 1 (OPRM1) and delta 1 (OPRD1) opioid receptors: Luminescence-based cell-based high throughput dose response assay to identify agonists of OPRM1 homodimerization.; format: functional;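 further: U2OS cells expressing OPRM1 and beta-arrestin as split beta-galactosidase partners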
[23] = biological target: 5-hydroxytryptamine receptor 5A (Homo sapiens, UniProt P47898); experiment: Counterscreen for agonists of OPRM1-OPRD1 heterodimerization: luminescence-based cell-based high throughput dose response assay to identify agonists of 5-hydroxytryptamine (serotonin) 5A receptor (HTR5A). [Related pubchem assays (depositor defined):AID504326, AID504355, AID504692, AID504904, AID504905]; format: functional
[24] = biological target: Beta-2 adrenergic receptor (Homo sapiens, UniProt P07550); experiment: ADRB2 activation measured by internalization – cell-based, FAP fluorogen, flow cytometry, cherry pick 1, dose response (AID 588763); format: functional
[25] = biological target: T3, Heat shock factor protein 1 (Mus musculus, UniProt P38532); experiment: enhancement of HSF1-driven luciferase signal – cell-based, NIH3T3, luminescence, dose retest, confirmation (AID 435004); format: functional;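 further: stress induced by proteasome inhibitor MG132 added 30 min after compound; luciferase reporter driven by HSF1 response element in NIH3T3 cells; actives raise luminescence as potentiators of the MG132 stress response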
T3 sequence (P38532 whole entry): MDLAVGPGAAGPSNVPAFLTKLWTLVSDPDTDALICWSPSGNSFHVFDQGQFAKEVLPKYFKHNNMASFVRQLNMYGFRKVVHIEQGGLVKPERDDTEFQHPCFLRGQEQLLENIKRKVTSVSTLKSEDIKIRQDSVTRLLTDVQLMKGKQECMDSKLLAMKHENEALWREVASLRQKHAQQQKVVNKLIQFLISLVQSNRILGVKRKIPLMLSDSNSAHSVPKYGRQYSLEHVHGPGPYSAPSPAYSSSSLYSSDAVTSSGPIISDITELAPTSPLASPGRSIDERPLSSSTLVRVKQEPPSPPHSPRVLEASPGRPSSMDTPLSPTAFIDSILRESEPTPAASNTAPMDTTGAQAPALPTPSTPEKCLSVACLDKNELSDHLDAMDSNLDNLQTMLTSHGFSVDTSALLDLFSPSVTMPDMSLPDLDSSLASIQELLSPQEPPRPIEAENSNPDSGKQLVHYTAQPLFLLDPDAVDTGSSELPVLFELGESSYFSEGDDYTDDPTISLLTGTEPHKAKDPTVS

Sequence of Beta-2 adrenergic receptor (P07550 whole entry): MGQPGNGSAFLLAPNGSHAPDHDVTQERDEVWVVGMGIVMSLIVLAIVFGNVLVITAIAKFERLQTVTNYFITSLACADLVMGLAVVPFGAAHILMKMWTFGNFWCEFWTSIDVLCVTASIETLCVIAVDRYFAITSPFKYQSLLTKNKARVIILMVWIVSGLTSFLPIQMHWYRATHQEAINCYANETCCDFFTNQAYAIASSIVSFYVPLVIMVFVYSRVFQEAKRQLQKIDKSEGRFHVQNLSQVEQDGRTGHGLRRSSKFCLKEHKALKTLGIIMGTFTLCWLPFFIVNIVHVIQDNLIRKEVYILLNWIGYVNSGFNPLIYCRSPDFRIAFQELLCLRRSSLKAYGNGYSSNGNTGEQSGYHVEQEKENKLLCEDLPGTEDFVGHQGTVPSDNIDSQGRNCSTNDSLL
T2 sequence (P11940 whole entry, the tested form may be a part): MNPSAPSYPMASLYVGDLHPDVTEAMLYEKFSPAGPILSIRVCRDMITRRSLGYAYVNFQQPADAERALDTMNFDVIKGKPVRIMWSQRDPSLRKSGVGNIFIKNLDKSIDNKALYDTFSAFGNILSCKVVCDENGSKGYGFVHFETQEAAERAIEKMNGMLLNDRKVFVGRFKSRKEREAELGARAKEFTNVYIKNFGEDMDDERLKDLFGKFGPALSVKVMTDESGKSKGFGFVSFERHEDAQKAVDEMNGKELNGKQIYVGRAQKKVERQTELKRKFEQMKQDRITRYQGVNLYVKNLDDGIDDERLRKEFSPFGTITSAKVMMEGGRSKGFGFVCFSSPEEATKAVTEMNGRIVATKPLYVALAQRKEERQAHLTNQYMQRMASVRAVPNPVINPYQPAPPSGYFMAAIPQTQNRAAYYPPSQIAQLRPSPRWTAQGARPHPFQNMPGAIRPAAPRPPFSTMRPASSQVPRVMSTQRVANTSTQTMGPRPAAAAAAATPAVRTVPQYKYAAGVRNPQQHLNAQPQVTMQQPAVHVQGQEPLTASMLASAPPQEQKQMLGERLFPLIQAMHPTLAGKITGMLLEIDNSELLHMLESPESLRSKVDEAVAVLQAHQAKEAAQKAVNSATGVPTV
Sequence of Delta-type opioid receptor (P41143 whole entry): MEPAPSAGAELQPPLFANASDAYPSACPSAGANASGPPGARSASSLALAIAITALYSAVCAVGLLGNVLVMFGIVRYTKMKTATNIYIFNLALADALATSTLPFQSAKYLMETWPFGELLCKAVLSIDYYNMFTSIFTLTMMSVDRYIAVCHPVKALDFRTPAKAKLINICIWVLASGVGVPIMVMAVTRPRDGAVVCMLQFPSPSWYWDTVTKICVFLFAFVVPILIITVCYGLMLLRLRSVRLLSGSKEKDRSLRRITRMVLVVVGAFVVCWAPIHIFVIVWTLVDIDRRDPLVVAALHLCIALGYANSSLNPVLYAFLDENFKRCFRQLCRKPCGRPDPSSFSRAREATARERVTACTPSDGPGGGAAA
Sequence of 5-hydroxytryptamine receptor 5A (P47898 whole entry): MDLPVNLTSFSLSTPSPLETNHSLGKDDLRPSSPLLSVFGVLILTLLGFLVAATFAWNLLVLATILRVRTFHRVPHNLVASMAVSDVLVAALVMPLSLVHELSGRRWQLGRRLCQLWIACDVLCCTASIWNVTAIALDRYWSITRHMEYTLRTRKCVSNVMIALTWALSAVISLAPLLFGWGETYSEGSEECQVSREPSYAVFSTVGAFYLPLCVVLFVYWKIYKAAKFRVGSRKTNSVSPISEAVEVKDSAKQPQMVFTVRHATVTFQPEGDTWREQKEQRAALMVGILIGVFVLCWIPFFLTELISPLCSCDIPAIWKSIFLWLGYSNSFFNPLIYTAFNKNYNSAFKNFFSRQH
Sequence of Mu-type opioid receptor (P35372 whole entry): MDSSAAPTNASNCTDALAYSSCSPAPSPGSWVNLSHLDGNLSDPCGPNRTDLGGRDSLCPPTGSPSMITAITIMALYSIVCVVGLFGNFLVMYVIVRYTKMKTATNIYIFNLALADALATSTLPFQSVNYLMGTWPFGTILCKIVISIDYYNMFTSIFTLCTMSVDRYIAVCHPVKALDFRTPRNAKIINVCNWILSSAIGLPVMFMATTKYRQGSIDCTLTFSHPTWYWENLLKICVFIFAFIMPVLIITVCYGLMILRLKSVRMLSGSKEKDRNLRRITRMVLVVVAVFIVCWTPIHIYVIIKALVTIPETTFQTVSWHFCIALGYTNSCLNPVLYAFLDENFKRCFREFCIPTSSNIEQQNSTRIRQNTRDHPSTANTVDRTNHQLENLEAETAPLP

CNC[C@@H](Cc1ccccc1)NC[C@@H](CC1CCCCC1)NCCCc1ccccc1
EC50 [1]: 4.94 µM (inconclusive)
EC50 [2]: 7.68 µM (active)
EC50 [3]: 5 µM (active)
EC50 [4]: > 120 µM (not active)
EC50 [5]: 4.29 µM (active)
EC50 [6]: 5.13 µM (inconclusive)
EC50 [7]: > 38 µM (not active)
CC50 [8]: 5.76 µM (active)
EC50 [9]: 5.72 µM (inconclusive)
EC50 [10]: 5.08 µM (active)
IC50 [11]: > 20 µM (inactive)
EC50 [12]: 0.532 µM (inconclusive)
AC50 [13]: 6.49 µM (active)
AC50 [14]: 5.06 µM (active)

COc1ccc2c3c(ccc2c1)C(O)=C(C=O)CC3
AC50 [15]: 2.94 µM (active)
CC50 [16]: > 40 µM (active)
AC50 [17]: 0.633 µM (active)
IC50 [18]: > 66 µM (inactive)
IC50 [19]: > 66 µM (inactive)

COc1cc(NC(=O)C2CC(=O)NC3=C2C(=O)CC(C)(C)C3)c(OC)cc1Cl (stereo not given)
AC50 [20]: 24.1 µM (active)

Cn1c(-c2c(N)n(CCc3ccccc3)c3nc4ccccc4nc23)nc2ccccc21
EC50 [1]: > 160 µM (inactive)
EC50 [7]: > 38 µM (not active)
CC50 [8]: > 40 µM (active)
EC50 [21]: > 92.5 µM (inactive)
EC50 [22]: 24.8 µM (inactive)
EC50 [23]: > 92.5 µM (inactive)

COc1ccc(S(=O)(=O)N2CCC(C(N)=O)CC2)cc1
AC50 [20]: 38.3 µM (active)

CC(=O)Nc1ccc(-c2nnc(SCc3ccc(C)cc3)n2C)cc1
EC50 [24]: 3.6 µM (active)

O=C(CSc1nnc(-c2ccncc2)n1Cc1ccco1)N1c2ccccc2Sc2ccc(Cl)cc21
EC50 [25]: 27.3 µM (active)
EC50 [24]: 0.343 µM (active)
